Source: patent US20260115185A1, “QUINOLINE DERIVATIVES WHICH ACT AS KAPPA-OPIOID RECEPTOR ANTAGONISTS” (The Scripps Research Institute, priority 2023, published 2026)

Columns and labels:
[1] = biological target: T1, kappa opioid receptor (KOR) (Homo sapiens, UniProt P41145); assay: OPRKappa 1 Tango B-Arrestin Assay, antagonist mode (Tango OPRK1-bla U2OS cells, U50488 EC80 challenge); assay type: cell-based; conditions: for Selectivity (MOR/KOR): Kappa selectivity, MOR IC50 / KOR IC50; for IC50: antagonist mode, Tango OPRK1-bla U2OS cells, 6 nM U50488 challenge
T1 construct: host or cells: U2OS (Tango OPRK1-bla U2OS)
T1 sequence (P41145 whole entry): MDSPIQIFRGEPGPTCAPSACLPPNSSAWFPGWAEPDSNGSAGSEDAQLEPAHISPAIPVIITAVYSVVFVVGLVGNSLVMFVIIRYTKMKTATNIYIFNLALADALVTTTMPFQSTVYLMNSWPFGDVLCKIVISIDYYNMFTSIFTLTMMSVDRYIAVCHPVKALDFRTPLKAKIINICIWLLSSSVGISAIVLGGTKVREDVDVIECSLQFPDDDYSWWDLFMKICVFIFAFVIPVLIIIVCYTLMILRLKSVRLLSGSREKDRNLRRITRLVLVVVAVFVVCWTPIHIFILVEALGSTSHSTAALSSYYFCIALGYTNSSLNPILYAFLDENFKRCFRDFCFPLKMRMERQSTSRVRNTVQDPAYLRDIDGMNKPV
Summary of the method: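 Tango OPRK1-bla U2OS cells, β-arrestin recruitment read as β-lactamase FRET (CCF4-AM, 460/590 nm emission). Compounds, 10-point 1:3 series from nominal 10 µM in quadruplicate, preincubated 30 min at 37 °C, then challenged with U50488 at 6 nM final (EC80) for 4 h; percent inhibition from median ratio.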

[2] = biological target: T2, mu opioid receptor (MOR) (Homo sapiens, UniProt P35372); assay: OPRMu1 Discover X β-arrestin Assay, antagonist mode (U2OS cells, DAMGO EC80 challenge); assay type: cell-based
T2 construct: host or cells: U2OS (Discover X OPRMu1-U2OS, PathHunter)
T2 sequence (P35372 whole entry): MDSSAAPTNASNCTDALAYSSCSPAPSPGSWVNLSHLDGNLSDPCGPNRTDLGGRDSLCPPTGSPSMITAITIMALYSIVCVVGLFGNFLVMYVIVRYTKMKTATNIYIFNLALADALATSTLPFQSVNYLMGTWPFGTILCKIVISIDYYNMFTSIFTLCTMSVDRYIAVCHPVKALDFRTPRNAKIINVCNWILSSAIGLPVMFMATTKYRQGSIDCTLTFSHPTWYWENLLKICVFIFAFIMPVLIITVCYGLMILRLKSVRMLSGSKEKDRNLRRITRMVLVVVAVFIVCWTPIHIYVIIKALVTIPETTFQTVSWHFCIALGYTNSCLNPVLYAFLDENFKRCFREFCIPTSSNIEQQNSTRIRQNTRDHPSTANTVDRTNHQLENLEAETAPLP
Summary of the method: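 PathHunter U2OS cells with β-gal fragment-complementation readout for β-arrestin recruitment to OPRMu1. Cells were preincubated with compound (10-point, 1:3 series from nominal 10 micromolar) for 30 min at 37 °C, then challenged with 303 nM DAMGO (EC80) for 3 h. Luminescence gave percent inhibition.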

SMILES | Selectivity (MOR/KOR) [1] | IC50 [1] [nM] | IC50 [2] [nM]
CCc1cc(F)c2nc(N3CCN(C(=O)[C@H](CO)N(C)C)C[C@H]3C)c(-c3ccn(C)n3)c(C)c2c1 [Compound 178] | +++ (between 100- to 1000-fold selective) | 10 to 100 | > 1000
CCc1cc(F)c2nc(N3CCN(C[C@H]4CCOC4)C[C@H]3C)c(-c3nc(C)no3)c(C)c2c1 [Compound 202] | ++++ (more than 1000-fold selectivity over MOR) | 1 to 10 | > 1000
CCc1cc(F)c2nc(N3CCN(C(=O)[C@H]4COCCN4C)C[C@H]3C)c(-c3nc(C)no3)c(C)c2c1 [Compound 184] | +++ (between 100- to 1000-fold selective) | 10 to 100 | > 1000
CCc1cc(F)c2nc(N3CCN(C(=O)[C@@H]4C[C@@H](O)CN4C)C[C@H]3C)c(-c3ccn(C)n3)c(C)c2c1 [Compound 177] | +++ (between 100- to 1000-fold selective) | ≥ 100 | > 1000
CCc1cc(F)c2nc(N3CCC(N[C@H]4CCOC4)CC3)c(-c3cc(C)n(C)n3)c(C)c2c1 [Compound 18, (S)-1-(3-(1,5-dimethyl-1H-pyrazol-3-yl)-6-ethyl-8-fluoro-4-methylquinolin-2-yl)-N-(tetrahydrofuran-3-yl)piperidin-4-amine] | +++ (between 100- to 1000-fold selective) | 1 to 10 | > 1000
CCc1cc(F)c2nc(N3CCN(/C(=N\C#N)NC4CCOCC4)C[C@H]3C)c(-c3ccn(C)n3)c(C)c2c1 [Compound 11, (R,E)-N′-cyano-4-(6-ethyl-8-fluoro-4-methyl-3-(1-methyl-1H-pyrazol-3-yl)quinolin-2-yl)-3-methyl-N-(tetrahydro-2H-pyran-4-yl)piperazine-1-carboximidamide] | ++ (between 10- and 100-fold selectivity) | 10 to 100 | 1 to 10
Cc1cc(Cl)c2nc(N3CCN(CC4CCOCC4)C[C@H]3C)c(-c3nc(C)no3)c(C)c2c1 [Compound 51, (R)-5-(8-chloro-4,6-dimethyl-2-(2-methyl-4-((tetrahydro-2H-pyran-4-yl)methyl)piperazin-1-yl)quinolin-3-yl)-3-methyl-1,2,4-oxadiazole] | +++ (between 100- to 1000-fold selective) | 1 to 10 | 100 to 1000
CCc1cc(F)c2nc(N3CCN(C(=O)[C@H]4CC(F)(F)CCN4)C[C@H]3C)c(-c3nc(C)no3)c(C)c2c1 [Compound 200] | +++ (between 100- to 1000-fold selective) | 1 to 10 | > 1000
CCc1cc(-c2ccnn2C)c2nc(N3CCN(CC4CCOCC4)C[C@H]3C)c(-c3ccn(C)n3)c(C)c2c1 [Compound 62] | +++ (between 100- to 1000-fold selective) | 1 to 10 | 100 to 1000
Cc1noc(-c2c(N3CCN(CC4CCOCC4)C[C@H]3C)nc3c(F)cc(Cl)cc3c2C)n1 [Compound 50, (R)-5-(6-chloro-8-fluoro-4-methyl-2-(2-methyl-4-((tetrahydro-2H-pyran-4-yl)methyl)piperazin-1-yl)quinolin-3-yl)-3-methyl-1,2,4-oxadiazole] | ++ (between 10- and 100-fold selectivity) | ≥ 100 | > 1000
CCc1cc(F)c2nc(N3CCN(/C(=N/C#N)NC4CC(F)(F)C4)C[C@H]3C)c(-c3nc(C)no3)c(C)c2c1 [Compound 54] | +++ (between 100- to 1000-fold selective) | < 1 | 10 to 100
CCc1cc(-c2ccnn2C)c2nc(N3CCC(N[C@H]4CCOC[C@@H]4F)CC3)c(-c3ccn(C)n3)c(C)c2c1 [Compound 9, 1-(6-ethyl-4-methyl-3-(1-methyl-1H-pyrazol-3-yl)-8-(1-methyl-1H-pyrazol-5-yl)quinolin-2-yl)-N-((3R,4S)-3-fluorotetrahydro-2H-pyran-4-yl)piperidin-4-amine] | +++ (between 100- to 1000-fold selective) | < 1 | 100 to 1000
CCc1cc(-c2cc[nH]n2)c2nc(N3CCNC[C@H]3C)c(-c3ccn(C)n3)c(C)c2c1 [Compound 12, (R)-6-ethyl-4-methyl-3-(1-methyl-1H-pyrazol-3-yl)-2-(2-methylpiperazin-1-yl)-8-(1H-pyrazol-3-yl)quinoline] | + (less than 10-fold selectivity) | ≥ 100 | > 1000
CCc1cc(F)c2nc(N3CCC(N[C@@H]4CCOC[C@@H]4F)CC3)c(-c3cc(C)n(C)n3)c(C)c2c1 [Compound 14, 1-(3-(1,5-dimethyl-1H-pyrazol-3-yl)-6-ethyl-8-fluoro-4-methylquinolin-2-yl)-N-((3R,4R)-3-fluorotetrahydro-2H-pyran-4-yl)piperidin-4-amine] | +++ (between 100- to 1000-fold selective) | 1 to 10 | 100 to 1000
CCc1cc(F)c2nc(N3CCN(C(=O)[C@H]4CCCN4C)C[C@H]3C)c(-c3nc(C)no3)c(C)c2c1 [Compound 183] | ++++ (more than 1000-fold selectivity over MOR) | 1 to 10 | > 1000
CCc1cc(F)c2nc(N3CCN(C(=O)CN4CCCC4)C[C@H]3C)c(-c3ccn(C)n3)c(C)c2c1 [Compound 173] | +++ (between 100- to 1000-fold selective) | 1 to 10 | 100 to 1000
